Broadly, the EC50 is the concentration giving half of the maximal effect.

Where only a bound is given, the exact number is not on record here.

The test concerns the target T1, human 5HT2c receptor (VNV Isoform) (Homo sapiens, UniProt P28335, I156V/I160V).
T1 construct: expressed in transfected cells; host or cells: HEK 293 EBNA
T1 sequence (P28335 33-458 I156V/I160V): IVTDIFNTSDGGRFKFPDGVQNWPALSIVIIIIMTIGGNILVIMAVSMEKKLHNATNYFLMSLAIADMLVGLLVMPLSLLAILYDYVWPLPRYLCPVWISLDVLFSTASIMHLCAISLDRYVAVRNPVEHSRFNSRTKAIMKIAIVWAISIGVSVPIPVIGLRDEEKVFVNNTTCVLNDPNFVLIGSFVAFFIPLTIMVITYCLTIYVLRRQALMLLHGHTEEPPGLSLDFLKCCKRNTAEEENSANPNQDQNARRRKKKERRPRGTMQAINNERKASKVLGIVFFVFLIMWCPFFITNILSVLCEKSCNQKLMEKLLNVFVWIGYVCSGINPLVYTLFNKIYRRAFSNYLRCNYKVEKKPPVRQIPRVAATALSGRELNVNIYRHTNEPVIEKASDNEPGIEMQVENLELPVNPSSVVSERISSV
The test is described as follows: Calcium mobilization (FLIPR) 5HT2c receptor agonist assay. It is filed as cell-based. The conditions noted are these: HEK 293 EBNA cells expressing human 5HT2c receptor (VNV isoform), agonist-induced calcium fluorescence, read-out: 5-HT2c EC50 (hVNV). As to the method: The following procedure was utilized to evaluate representative compounds of the present invention as 5HT2c, receptor agonists.
5HT was utilized as a positive control. Ligand-induced calcium release and consequent fluorescence was measured on a Fluorometric Imaging Plate Reader (FLIPR, Molecular Device, CA).
All data were analyzed by nonlinear least square curve fitting using Prism 4.0 software. Agonist stimulation of calcium-induced fluorescence in FLIPR was fitted to sigmoidal dose response using equation Y=Bottom+(Top−Bottom)/(1+10^((Log EC50−X))), where X is the logarithm of concentration of compounds and Y is the fluorescent response.
On the technique in general: A change in cytosolic calcium serves as a functional read-out for many receptors and channels.
As to `CCS(=O)(=O)c1cc2c(s1)CCNCC2` [Example 5, 2-Ethanesulfonyl-5,6,7,8-tetrahydro-4H-thieno[2,3-d]azepine], the EC50 was less than 10 nM.
Turning to `Cc1c(C(=O)C(C)(C)C)sc2c1CCNCC2` [Example 1, 2,2-Dimethyl-1-(3-methyl-5,6,7,8-tetrahydro-4H-thieno[2,3-d]azepin-2-yl)-propan-1-one], the EC50 was less than 100 nM.
The same measure for `FC(F)(F)C1CCc2c1sc1c2CCNCC1` (racemic) [Example 6, (R,S)-1-Trifluoromethyl-1,2,3,4,5,6,7,8-octahydro-9-thia-6-aza-cyclopenta[a]azulene]: less than 10 nM; for `CC1(C)CC2CNCCc3sc(Br)c1c32` (racemic) [Example 14, (R,S)-2-Bromo-3,3-dimethyl-4,4a,5,6,7,8-hexahydro-3H-1-thia-6-aza-cyclopenta[cd]azulene]: less than 1000 nM; for `CC(C)(C)C(=O)c1sc2c(c1Cl)CCNCC2` [Example 19, 1-(3-Chloro-5,6,7,8-tetrahydro-4H-thieno[2,3-d]azepin-2-yl)-2,2-dimethyl-propan-1-one]: less than 100 nM.
For `CC1CNCCc2sc3c(c21)C(C)(C)CC3C(F)(F)F` (single isomer, unassigned) [17 Diastereomer 1], the EC50 is less than 100 nM.
The same measure for `CC1Cc2cc(Br)sc2CCN1` (racemic) [Example 15, (R,S)-2-Bromo-5-methyl-5,6,7,8-tetrahydro-4H-thieno[2,3-d]azepine]: less than 1000 nM.
The same measure for `CC1CNCCc2sc3c(c21)CCC3C(F)(F)F` (single isomer, unassigned) [Example 16, 4-Methyl-1-trifluoromethyl-1,2,3,4,5,6,7,8-octahydro-9-thia-6-aza-cyclopenta[a]azulene]: less than 100 nM.
Under `CCS(=O)(=O)c1sc2c(c1C)C(C)CNCC2` (single isomer, unassigned) [Example 10, 2-Ethanesulfonyl-3,4-dimethyl-5,6,7,8-tetrahydro-4H-thieno[2,3-d]azepine] stands less than 100 nM; under `FC(F)(F)Cc1sc2c(c1Br)CCNCC2` [Example 2, 3-Bromo-2-(2,2,2-trifluoro-ethyl)-5,6,7,8-tetrahydro-4H-thieno[2,3-d]azepine], less than 10 nM.
As to `CC1CNCCc2sc(C(=O)C(C)(C)C)cc21` (racemic) [Example 11, (R,S)-2,2-Dimethyl-1-(4-methyl-5,6,7,8-tetrahydro-4H-thieno[2,3-d]azepin-2-yl)-propan-1-one], the EC50 is less than 100 nM.
Under `CC(C)(c1cc2c(s1)CCNCC2)C(F)(F)F` [Example 8, 2-(2,2,2-Trifluoro-1,1-dimethyl-ethyl)-5,6,7,8-tetrahydro-4H-thieno[2,3-d]azepine] stands less than 100 nM; under `CC(c1cc2c(s1)CCNCC2)C(F)(F)F` (racemic) [Example 4, (R,S)-2-(2,2,2-Trifluoro-1-methyl-ethyl)-5,6,7,8-tetrahydro-4H-thieno[2,3-d]azepine], less than 10 nM; under `CC1CNCCc2sc3c(c21)C(C)(C)CC3C(F)(F)F` (single isomer, unassigned) [17 Diastereomer 2], less than 1000 nM.
The same measure for `FC(F)(F)Cc1sc2c3c1CCC3CNCC2` (racemic) [Example 13, (R,S)-2-(2,2,2-Trifluoro-ethyl)-4,4a,5,6,7,8-hexahydro-3H-1-thia-6-aza-cyclopenta[cd]azulene]: less than 100 nM; for `CC1CNCCc2sc(CC(F)(F)F)c(Br)c21` (single isomer, unassigned) [Example 9, 3-Bromo-4-methyl-2-(2,2,2-trifluoro-ethyl)-5,6,7,8-tetrahydro-4H-thieno[2,3-d]azepine]: less than 100 nM.
Under `O=S(=O)(c1ccccc1)c1cc2c(s1)CCNCC2` [Example 3, 2-Benzenesulfonyl-5,6,7,8-tetrahydro-4H-thieno[2,3-d]azepine] stands less than 10 nM; under `CC1CNCCc2sc(C(=O)C(C)(C)C)c(Br)c21` (single isomer, unassigned) [Example 12, 1-(3-Bromo-4-methyl-5,6,7,8-tetrahydro-4H-thieno[2,3-d]azepin-2-yl)-2,2-dimethyl-propan-1-one], less than 100 nM; under `CC1(C)CC(C(F)(F)F)c2sc3c(c21)CCNCC3` (racemic) [Example 7, (R,S)-3,3-Dimethyl-1-trifluoromethyl-1,2,3,4,5,6,7,8-octahydro-9-thia-6-aza-cyclopenta[a]azulene], less than 1000 nM.
Turning to `CC(C)(C)C(=O)c1cc2c(s1)CCNCC2` [Example 18, 2,2-Dimethyl-1-(5,6,7,8-tetrahydro-4H-thieno[2,3-d]azepin-2-yl)-propan-1-one], the EC50 is less than 10 nM.

(Values after patent US8716276B2, “Thiophenyl and pyrrolyl azepines as serotonin 5-HT2C receptor ligands and uses thereof” (Athersys, Inc., priority 2006, dated 2014).)
